Experimental data from publication PMC8881077 (Journal of Enzyme Inhibition and Medicinal Chemistry, 2022).
Read-outs that look alike come from different tables or passages of the source.

What was measured:
[1] = target: T1, ratAChE (Rattus norvegicus, UniProt P37136); assay: biochemical; details: for SI: Selectivity Index = IC50 (BuChE)/IC50 (AChE), rat enzymes; for IC50: from 5% rat cortex homogenate
T1 construct: AChE from 5% rat cortex homogenate or human erythrocytes (Sigma Co.); from tissue; host or cells: 5% rat cortex homogenate
T1 sequence (P37136 32-614): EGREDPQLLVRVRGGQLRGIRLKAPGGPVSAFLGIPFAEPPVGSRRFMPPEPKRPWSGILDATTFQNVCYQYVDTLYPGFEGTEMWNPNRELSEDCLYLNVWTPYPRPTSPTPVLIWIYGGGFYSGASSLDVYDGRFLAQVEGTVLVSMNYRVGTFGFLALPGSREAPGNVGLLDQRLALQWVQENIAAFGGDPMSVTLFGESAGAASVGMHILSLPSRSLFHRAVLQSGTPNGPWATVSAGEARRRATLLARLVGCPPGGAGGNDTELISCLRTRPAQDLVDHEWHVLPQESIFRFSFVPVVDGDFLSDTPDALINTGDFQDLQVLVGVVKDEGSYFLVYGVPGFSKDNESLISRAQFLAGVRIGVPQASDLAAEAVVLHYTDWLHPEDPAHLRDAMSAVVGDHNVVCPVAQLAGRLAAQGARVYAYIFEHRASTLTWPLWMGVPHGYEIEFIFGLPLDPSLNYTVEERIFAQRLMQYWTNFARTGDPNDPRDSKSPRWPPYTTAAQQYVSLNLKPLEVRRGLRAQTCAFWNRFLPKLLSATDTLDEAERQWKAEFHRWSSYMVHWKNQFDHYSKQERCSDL
Experimental: (§1) The AChE and BuChE inhibitory activities of the synthesised compounds were evaluated using the Ellman assay with slight modification. AChE from 5% rat cortex homogenate or human erythrocytes (Sigma Co.). BuChE from rat serum or human serum (Sigma Co.).

[2] = target: T2, ratBuChE (Rattus norvegicus, UniProt Q9JKC1); assay: ratBuChE inhibition, modified Ellman's method; format: biochemical
T2 construct: BuChE from rat serum or human serum (Sigma Co.); from tissue; host or cells: rat serum
T2 sequence (Q9JKC1 24-597): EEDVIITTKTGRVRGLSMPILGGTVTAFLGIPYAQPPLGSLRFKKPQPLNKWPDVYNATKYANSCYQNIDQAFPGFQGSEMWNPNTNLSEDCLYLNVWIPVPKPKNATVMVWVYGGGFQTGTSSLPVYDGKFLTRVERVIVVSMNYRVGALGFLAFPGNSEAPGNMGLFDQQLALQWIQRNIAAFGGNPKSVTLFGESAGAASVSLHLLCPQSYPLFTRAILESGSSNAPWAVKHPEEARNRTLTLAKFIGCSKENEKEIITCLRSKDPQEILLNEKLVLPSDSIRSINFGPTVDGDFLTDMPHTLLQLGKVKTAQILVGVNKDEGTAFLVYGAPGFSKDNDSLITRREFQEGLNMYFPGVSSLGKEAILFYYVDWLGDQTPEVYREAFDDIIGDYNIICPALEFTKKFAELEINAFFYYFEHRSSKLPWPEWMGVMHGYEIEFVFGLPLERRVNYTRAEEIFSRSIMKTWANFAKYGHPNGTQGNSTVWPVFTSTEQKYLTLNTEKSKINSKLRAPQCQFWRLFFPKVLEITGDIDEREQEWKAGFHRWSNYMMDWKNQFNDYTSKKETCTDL
Experimental: as §1

[3] = Trolox as standard
Experimental: The skeleton compounds naringenin and apigenin were also evaluated for comparison purposes, and vitamin E analogue Trolox was used as a standard.
The antioxidant potency of target compounds was tested using an oxygen radical absorbance capacity fluorescein (ORAC-FL) assay.

[4] = system: PC12 cells; assay: Neuroprotective effect on H2O2-induced PC12 cells injury, MTT assay; format: cell-based; details: compound 100 μM, 100 μM H2O2, PC12 cells

Molecule	SI [1]	IC50 ([1]; read-out: IC50 ± SD ratAChE) [µM]	IC50 [2] [µM]	ORAC [3]	IC50 ([1]; IC50 ± SD ratAChE) [µM]	cell viability [4] [%]
O=c1cc(-c2ccc(OCCCN3CCC(Cc4ccccc4)CC3)cc2)oc2cc(OCCCN3CCC(Cc4ccccc4)CC3)cc(O)c12 [Compound 10c, 7–(3-(4-benzylpiperidin-1-yl)propoxy)-2–(4-(3–(4-benzylpiperidin-1-yl)propoxy)phenyl)-5-hydroxy-4H-chromen-4-one]	2.5	5.5 ± 0.17	13.6 ± 0.67	1.2 ± 0.03 μM of Trolox equivalent/μM of tested compound		
O=c1cc(-c2ccc(OCCCN3CCC(c4ccccc4)CC3)cc2)oc2cc(OCCCN3CCC(c4ccccc4)CC3)cc(O)c12 [Compound 10d, 5-hydroxy-7–(3-(4-phenylpiperidin-1-yl)propoxy)-2–(4-(3–(4-phenylpiperidin-1-yl)propoxy)phenyl)-4H-chromen-4-one]	2.4	6.4 ± 0.22	15.1 ± 0.49	1.1 ± 0.02 μM of Trolox equivalent/μM of tested compound		
O=c1cc(-c2ccc(OCCCN3CCC(CCCc4ccccc4)CC3)cc2)oc2cc(OCCCN3CCC(CCCc4ccccc4)CC3)cc(O)c12 [Compound 10e, 5-hydroxy-7–(3-(4–(3-phenylpropyl)piperidin-1-yl)propoxy)-2–(4-(3–(4–(3-phenylpropyl)piperidin-1-yl)propoxy)phenyl)-4H-chromen-4-one]		7.9 ± 0.26	13.8 ± 0.43	1.1 ± 0.02 μM of Trolox equivalent/μM of tested compound		
CC1CC(C)CN(CCCOc2ccc(-c3cc(=O)c4c(O)cc(OCCCN5CC(C)CC(C)C5)cc4o3)cc2)C1 (stereo not shown) [Compound 10f, 7–(3-(3,5-dimethylpiperidin-1-yl)propoxy)-2–(4-(3–(3,5-dimethylpiperidin-1-yl)propoxy)phenyl)-5-hydroxy-4H-chromen-4-one]	1.9	8.6 ± 0.33	16.7 ± 0.52	1.0 ± 0.04 μM of Trolox equivalent/μM of tested compound		
O=c1cc(-c2ccc(OCCCCN3CCc4ccccc4C3)cc2)oc2cc(OCCCCN3CCc4ccccc4C3)cc(O)c12 [Compound 10g, 7–(4-(3,4-dihydroisoquinolin-2(1H)-yl)butoxy)-2–(4-(4–(3,4-dihydroisoquinolin-2(1H)-yl)butoxy)phenyl)-5-hydroxy-4H-chromen-4-one]	3.8	4.6 ± 0.21	17.4 ± 0.35	1.2 ± 0.03 μM of Trolox equivalent/μM of tested compound		
O=c1cc(-c2ccc(OCCCCN3CCN(Cc4ccccc4)CC3)cc2)oc2cc(OCCCCN3CCN(Cc4ccccc4)CC3)cc(O)c12 [Compound 10i, 7–(4-(4-Benzylpiperazin-1-yl)butoxy)-2–(4–(4-(4-benzylpiperazin-1-yl)butoxy)phenyl)-5-hydroxy-4H-chromen-4-one]		6.9 ± 0.14	10.3 ± 0.19	1.5 ± 0.02 μM of Trolox equivalent/μM of tested compound		
O=c1cc(-c2ccc(OCCCCN3CCC(Cc4ccccc4)CC3)cc2)oc2cc(OCCCCN3CCC(Cc4ccccc4)CC3)cc(O)c12 [Compound 10j, 7–(4-(4-Benzylpiperidin-1-yl)butoxy)-2–(4–(4-(4-benzylpiperidin-1-yl)butoxy)phenyl)-5-hydroxy-4H-chromen-4-one]	8.7	1.8 ± 0.04	15.7 ± 0.24	1.2 ± 0.03 μM of Trolox equivalent/μM of tested compound		
O=c1cc(-c2ccc(OCCCCCN3CCC(Cc4ccccc4)CC3)cc2)oc2cc(OCCCCCN3CCC(Cc4ccccc4)CC3)cc(O)c12 [Compound 10m, 7-((5–(4-benzylpiperidin-1-yl)pentyl)oxy)-2–(4-((5–(4-benzylpiperidin-1-yl)pentyl)oxy)phenyl)-5-hydroxy-4H-chromen-4-one]	12.8	1.3 ± 0.08	16.6 ± 0.27	1.2 ± 0.02 μM of Trolox equivalent/μM of tested compound		
O=c1cc(-c2ccc(OCCCCCN3CCC(c4ccccc4)CC3)cc2)oc2cc(OCCCCCN3CCC(c4ccccc4)CC3)cc(O)c12 [Compound 10n, 5-hydroxy-7-((5–(4-phenylpiperidin-1-yl)pentyl)oxy)-2–(4-((5–(4-phenylpiperidin-1-yl)pentyl)oxy)phenyl)-4H-chromen-4-one]	4.9	3.6 ± 0.11	17.9 ± 0.46	1.1 ± 0.04 μM of Trolox equivalent/μM of tested compound		
O=c1cc(-c2ccc(OCCCCCN3CCC(CCCc4ccccc4)CC3)cc2)oc2cc(OCCCCCN3CCC(CCCc4ccccc4)CC3)cc(O)c12 [Compound 10o, 5-hydroxy-7-((5–(4-(3-phenylpropyl)piperidin-1-yl)pentyl)oxy)-2–(4-((5–(4–(3-phenylpropyl)piperidin-1-yl)pentyl)oxy)phenyl)-4H-chromen-4-one]	3.9	4.1 ± 0.63	16.1 ± 0.25	1.2 ± 0.03 μM of Trolox equivalent/μM of tested compound		
CC1CC(C)CN(CCCCCOc2ccc(-c3cc(=O)c4c(O)cc(OCCCCCN5CC(C)CC(C)C5)cc4o3)cc2)C1 (stereo not shown) [Compound 10p, 7-((5–(3,5-dimethylpiperidin-1-yl)pentyl)oxy)-2–(4-((5–(3,5-dimethylpiperidin-1-yl)pentyl)oxy)phenyl)-5-hydroxy-4H-chromen-4-one]	2.2	6.2 ± 0.54	13.8 ± 0.37	1.1 ± 0.02 μM of Trolox equivalent/μM of tested compound		
O=c1cc(-c2ccc(OCCCCCCN3CCc4ccccc4C3)cc2)oc2cc(OCCCCCCN3CCc4ccccc4C3)cc(O)c12 [Compound 10q, 7-((6–(3,4-dihydroisoquinolin-2(1H)-yl)hexyl)oxy)-2–(4-((6–(3,4-dihydroisoquinolin-2(1H)-yl)hexyl)oxy)phenyl)-5-hydroxy-4H-chromen-4-one]	2.9	4.2 ± 0.15	12.2 ± 0.28	1.0 ± 0.02 μM of Trolox equivalent/μM of tested compound		
CCN(CCCCCCOc1ccc(-c2cc(=O)c3c(O)cc(OCCCCCCN(CC)Cc4ccccc4)cc3o2)cc1)Cc1ccccc1 [Compound 10r, 7-((6-(benzyl(ethyl)amino)hexyl)oxy)-2–(4-((6-(benzyl(ethyl)amino)hexyl)oxy)phenyl)-5-hydroxy-4H-chromen-4-one]	8.3	1.7 ± 0.21	14.1 ± 0.22	1.2 ± 0.04 μM of Trolox equivalent/μM of tested compound		
O=c1cc(-c2ccc(OCCCCCCN3CCC(Cc4ccccc4)CC3)cc2)oc2cc(OCCCCCCN3CCC(Cc4ccccc4)CC3)cc(O)c12 [Compound 10s, 7-((6–(4-benzylpiperidin-1-yl)hexyl)oxy)-2–(4-((6–(4-benzylpiperidin-1-yl)hexyl)oxy)phenyl)-5-hydroxy-4H-chromen-4-one]	6.5	2.6 ± 0.33	16.9 ± 0.54	1.1 ± 0.03 μM of Trolox equivalent/μM of tested compound		
O=c1cc(-c2ccc(OCCCCCCN3CCC(c4ccccc4)CC3)cc2)oc2cc(OCCCCCCN3CCC(c4ccccc4)CC3)cc(O)c12 [Compound 10t, 5-hydroxy-7-((6–(4-phenylpiperidin-1-yl)hexyl)oxy)-2–(4-((6–(4-phenylpiperidin-1-yl)hexyl)oxy)phenyl)-4H-chromen-4-one]	3.3	5.9 ± 0.37	19.3 ± 0.67	1.0 ± 0.02 μM of Trolox equivalent/μM of tested compound		
O=c1cc(-c2ccc(OCCCCCCN3CCC(CCCc4ccccc4)CC3)cc2)oc2cc(OCCCCCCN3CCC(CCCc4ccccc4)CC3)cc(O)c12 [Compound 10u, 5-hydroxy-7-((6–(4-(3-phenylpropyl)piperidin-1-yl)hexyl)oxy)-2–(4-((6–(4–(3-phenylpropyl)piperidin-1-yl)hexyl)oxy)phenyl)-4H-chromen-4-one]	2.7	6.3 ± 0.21	17.2 ± 0.45	1.2 ± 0.03 μM of Trolox equivalent/μM of tested compound		
CC1CC(C)CN(CCCCCCOc2ccc(-c3cc(=O)c4c(O)cc(OCCCCCCN5CC(C)CC(C)C5)cc4o3)cc2)C1 (stereo not shown) [Compound 10v, 7-((6–(3,5-dimethylpiperidin-1-yl)hexyl)oxy)-2–(4-((6–(3,5-dimethylpiperidin-1-yl)hexyl)oxy)phenyl)-5-hydroxy-4H-chromen-4-one]	1.8	8.1 ± 0.49	14.8 ± 0.29	1.3 ± 0.03 μM of Trolox equivalent/μM of tested compound		
O=c1cc(-c2ccc(O)cc2)oc2cc(O)cc(O)c12 [apigenin, reference compound]			> 50	5.6 ± 0.52 μM of Trolox equivalent/μM of tested compound	> 50	
Vitamine E [reference compound]						67.6
